The values below are quoted from earlier work in patent US6849609B2, “Method and composition for controlled release acarbose formulations” (priority 2001, dated 2005).

Each structure is given as a SMILES string.

In this series the test system is patients.

Take `C[C@H]1O[C@H](O[C@H]2[C@H](O)[C@@H](O)[C@@H](O[C@H]3[C@H](O)[C@@H](O)C(O)O[C@@H]3CO)O[C@@H]2CO)[C@H](O)[C@@H](O)[C@@H]1N[C@H]1C=C(CO)[C@@H](O)[C@H](O)[C@H]1O` (some centres unmarked) [Acarbose]: for the setting “acarbose alone, even when administered to patients in a fasted state”, the hypoglycemia result is “has not been shown to cause hypoglycemia”. Also, where the note is “patients taking acarbose, shown to abate with time”, the “most common adverse events” value is “flatulence, diarrhea and abdominal discomfort”.
